Laboratory results: patent publication US12194007B2, “Pharmaceutical composition for preventing or treating cancer, comprising gossypol, phenformin, and anticancer agent” (National Cancer Center, priority 2018, dated 2025)
Read-outs that look alike come from different tables or passages of the source.

How the values were obtained:
[1] = tested on: PC3 cell line or DU145 cell line; test: SRB cell proliferation assay, prostate cancer cell lines; format: cell-based; conditions: for effect of inhibiting cell proliferation in the triple drug treatment group: docetaxel 50 nM or irinotecan 0.5 μM mixed with gossypol 5 μM and phenformin 100 μM (Tables 20-21, FIGS. 7B, 7C)
[2] = tested on: SNU449 or Huh7 cell line; test: SRB cell proliferation assay, liver cancer cell lines; format: cell-based; conditions: for degree of cell proliferation with respect to the untreated control: gossypol 5 μM, phenformin 100 μM, cisplatin 1 μM, single or double (Table 22, FIG. 8A); for synergistic effect of anticancer action when mixed with gossypol and phenformin: liver cancer, cisplatin 1 μM or sorafenib 5 μM + gossypol 5 μM + phenformin 100 μM
[3] = tested on: SNU638 cells xenograft tumor; test: Gastric cancer mouse model, tumor growth; format: in vivo, Balb/c-nu mice; conditions: gossypol 80 mg/kg, phenformin 100 mg/kg, irinotecan 30 mg/kg, single, double or triple; vs solvent control (Table 27, FIGS. 12A, 12B)
Method: First, in order to make a lung cancer mouse model, 6 to 8 week old Balb/c-nu mice (Central Lab. Animal, Highland Heights, KY, USA) were prepared. In addition, 7.5×10^6 A549 cell line was cultured, and was injected subcutaneously to the prepared mice with a 1 ml syringe. Mice were reared for 1 week and divided into 4 groups of 8 mice each, and these were used as a control group or an experimental group as defined in [Table 24] and [Table 25]. The solvent or drug was orally administered to the mice of the solvent control group, the double drug treatment group, and the triple drug treatment group once a day, 6 days per week, and while administering intravenously irinotecan to the mice of the single treatment group with irinotecan once a day, 1 day per week, the mice were reared in the same environment for a total of 49 days. While breeding, the average was obtained by checking the weight and size of the tumor of the mouse group every 7 days. After injection of lung cancer cells, the initial tumor size was specified using a calliper. The tumor volume was calculated according to the following [Equation 1].
Specifically, the mouse model with the gastric cancer was prepared by the same method as the method of preparing the lung cancer mouse model in [Example 9], except that the mouse model with the gastric cancer was prepared by xenografting SNU638 cells (1.5×10^7). Then, the prepared mouse model with the gastric cancer was used as a control group or an experimental group as defined in the following [Table 27].

[4] = tested on: HT29 cell line or Colo205 cell line; test: SRB cell proliferation assay, colorectal cancer cell lines; format: cell-based; conditions: for degree of cell proliferation with respect to the untreated control: gossypol 2.5 μM, phenformin 50 μM, irinotecan 1 μM, single, double or triple (Table 7, FIG. 3A); for effect of inhibiting cell proliferation in the triple drug treatment group: cisplatin or capecitabine 10 μM mixed with gossypol 2.5 μM and phenformin 75 μM (Tables 8-9, FIGS. 3B, 3C); for synergistic effect of anticancer action when mixed with gossypol and phenformin: colon cancer, irinotecan 1 μM (phenformin 50 μM) or cisplatin/capecitabine 10 μM (phenformin 75 μM) + gossypol 2.5 μM
[5] = tested on: A549 cell line or H522 cell line; test: SRB cell proliferation assay, non-small cell lung cancer cell lines; format: cell-based; conditions: for degree of cell proliferation with respect to the untreated control: gossypol 5 μM, phenformin 100 μM, single, double or triple (Table 10, FIG. 4A); for degree of cell proliferation with respect to the untreated control / synergistic effect of anticancer action when mixed with gossypol and phenformin: irinotecan 1 μM; for effect of inhibiting cell proliferation in the triple drug treatment group: cisplatin 20 μM or 5-FU 5 μM mixed with gossypol 5 μM and phenformin 100 μM (Tables 11-12, FIGS. 4B, 4C); for synergistic effect of anticancer action when mixed with gossypol and phenformin: lung cancer (NSCLC), cisplatin 20 μM or 5-FU 5 μM + gossypol 5 μM + phenformin 100 μM
[6] = tested on: ACHN cell line or CAKI-1 cell line; test: SRB cell proliferation assay, kidney cancer cell lines; format: cell-based; conditions: for degree of cell proliferation with respect to the untreated control: gossypol 2.5 μM, phenformin 100 μM, sorafenib 10 μM, single, double or triple (Table 1, FIG. 1A)
Method: Specifically, while culturing the ACHN cell line or CAKI-1 cell line, which is a kidney cancer cell line, each cell was inoculated into a 96-well plate at a density of 5,000 to 20,000 cells/well depending on the amplification phase of the culture time. After inoculation, the anticancer agent mixtures of the following [Table 1] to [Table 3] were added to each well and cultured in a CO2 incubator for 24 hours. The anticancer agent mixture was prepared so that the final concentration of each anticancer agent can be appropriately added by mixing each at a stock concentration and then adding 100 μl each. After treatment with the anticancer agent, cells were further cultured for 48 hours, and then 10% (w/v) trichloroacetic acid (TCA) was added to each well and incubated at 4° C. for 60 minutes to fix the cells. The supernatant liquid other than the fixed cells was removed, the plate was washed 5 times with tap water, and then dried in air. After drying, 100 μl of 0.4% (w/v) sulforhodamine B buffer solution containing 1% acetic acid was added to each well, and left at room temperature for 5 minutes to stain the cells. After staining the cells, the cells were washed 5 times with 1% acetic acid to remove unstained dye and then dried in air. The colored dye was immobilized with 10 mM trizma base, and then absorbance was measured at 515 nm using a plate reader. As an untreated control, the degree of cell proliferation of a cell line cultured without treatment with an anticancer agent was measured, and the degree of cell proliferation of each experimental group with respect to the untreated control was calculated as a relative ratio and expressed as a percentage (%).

[7] = tested on: SK-OV-3 or OVCAR3 cell line; test: SRB cell proliferation assay, ovarian cancer cell lines; format: cell-based; conditions: for degree of cell proliferation with respect to the untreated control: gossypol 5 μM, phenformin 100 μM, single or double (Table 16, FIG. 6A); for degree of cell proliferation with respect to the untreated control / synergistic effect of anticancer action when mixed with gossypol and phenformin: cisplatin 1 nM; for synergistic effect of anticancer action when mixed with gossypol and phenformin: ovarian cancer, paclitaxel 50 nM or irinotecan 0.5 μM + gossypol 5 μM + phenformin 100 μM; for effect of inhibiting cell proliferation in the triple drug treatment group: paclitaxel 50 nM or irinotecan 0.5 μM mixed with gossypol 5 μM and phenformin 100 μM (Tables 17-18, FIGS. 6B, 6C)
[8] = tested on: UACC62 cell line or an A375 cell line; test: SRB cell proliferation assay, melanoma cell lines; format: cell-based; conditions: for degree of cell proliferation with respect to the untreated control: gossypol 5 μM, phenformin 100 μM, single, double or triple (Table 4, FIG. 2A); for effect of inhibiting cell proliferation in the triple drug treatment group: cisplatin or oxaliplatin 10 μM mixed with gossypol 5 μM and phenformin 100 μM (Tables 5-6, FIGS. 2B, 2C)
[9] = tested on: BT549 cell line or MB231 cell line; test: SRB cell proliferation assay, breast cancer cell lines; format: cell-based; conditions: for degree of cell proliferation with respect to the untreated control: gossypol 5 μM, phenformin 100 μM, third agent per Table 13 paclitaxel 50 nM, single, double or triple (FIG. 5A); for synergistic effect of anticancer action when mixed with gossypol and phenformin: breast cancer, named agent + gossypol 5 μM + phenformin 100 μM (Tables 13-15)
[10] = tested on: A549 cell line xenograft tumor; test: Lung cancer mouse model, tumor growth; format: in vivo, Balb/c-nu mice
Method: First, in order to make a lung cancer mouse model, 6 to 8 week old Balb/c-nu mice (Central Lab. Animal, Highland Heights, KY, USA) were prepared. In addition, 7.5×10^6 A549 cell line was cultured, and was injected subcutaneously to the prepared mice with a 1 ml syringe. Mice were reared for 1 week and divided into 4 groups of 8 mice each, and these were used as a control group or an experimental group as defined in [Table 24] and [Table 25]. […] While breeding, the average was obtained by checking the weight and size of the tumor of the mouse group every 7 days. After injection of lung cancer cells, the initial tumor size was specified using a calliper. The tumor volume was calculated according to the following [Equation 1].

## NC(N)=N/C(N)=N/CCc1ccccc1 [phenformin]
[1]; gossypol 5 μM, phenformin 100 μM, doxorubicin 1 nM, single, double or triple (Table 19, FIG. 7A)
  degree of cell proliferation with respect to the untreated control: proliferation of cancer cells could be inhibited at a significant level
[2]
  degree of cell proliferation with respect to the untreated control: proliferation of cancer cells could be inhibited at a significant level
[3]
  level of tumor growth: a level similar to levels of tumor growth
[4]
  degree of cell proliferation with respect to the untreated control: proliferation of cancer cells could be inhibited at a significant level
[5]
  degree of cell proliferation with respect to the untreated control: proliferation of cancer cells could be inhibited at a significant level
[6]
  degree of cell proliferation with respect to the untreated control: proliferation of cancer cells could be inhibited
[7]
  degree of cell proliferation with respect to the untreated control: proliferation of cancer cells could be inhibited at a significant level
[8]; vemurafenib 0.5 μM
  degree of cell proliferation with respect to the untreated control: proliferation of cancer cells could be inhibited at a significant level
[9]
  degree of cell proliferation with respect to the untreated control: proliferation of cancer cells could be inhibited at a significant level

## Nc1ccn([C@@H]2O[C@H](CO)[C@@H](O)C2(F)F)c(=O)n1 [gemcitabine]
[10]; gemcitabine 40 mg/kg with gossypol 80 mg/kg and phenformin 100 mg/kg (FIG. 10)
  anticancer synergistic effect of the triple drug administration: not observed
[10]; gemcitabine experiment: gossypol 80 mg/kg, phenformin 100 mg/kg, gemcitabine 40 mg/kg, single or double (Table 25, FIG. 10)
  tumor growth (change in tumor size): tumor growth at a level similar to that of the solvent administration group

## Cc1cc2c(C(C)C)c(O)c(O)c(C=O)c2c(O)c1-c1c(C)cc2c(C(C)C)c(O)c(O)c(C=O)c2c1O [gossypol]
[1]
  degree of cell proliferation with respect to the untreated control: proliferation of cancer cells could be inhibited at a significant level
[2]
  degree of cell proliferation with respect to the untreated control: proliferation of cancer cells could be inhibited at a significant level
[3]
  level of tumor growth: a level similar to levels of tumor growth
[4]
  degree of cell proliferation with respect to the untreated control: proliferation of cancer cells could be inhibited at a significant level
[5]
  degree of cell proliferation with respect to the untreated control: proliferation of cancer cells could be inhibited at a significant level
[6]
  degree of cell proliferation with respect to the untreated control: proliferation of cancer cells could be inhibited
[7]
  degree of cell proliferation with respect to the untreated control: proliferation of cancer cells could be inhibited at a significant level
[8]; vemurafenib 0.5 μM
  degree of cell proliferation with respect to the untreated control: proliferation of cancer cells could be inhibited at a significant level
[9]
  degree of cell proliferation with respect to the untreated control: proliferation of cancer cells could be inhibited at a significant level

## CC(=O)O[C@H]1C(=O)[C@@]2(C)[C@H]([C@H](OC(=O)c3ccccc3)[C@]3(O)C[C@H](OC(=O)[C@H](O)[C@@H](NC(=O)c4ccccc4)c4ccccc4)C(C)=C1C3(C)C)[C@]1(OC(C)=O)CO[C@@H]1C[C@@H]2O [paclitaxel]
[7]
  synergistic effect of anticancer action when mixed with gossypol and phenformin: not exhibited
  effect of inhibiting cell proliferation in the triple drug treatment group: level similar to that of the double drug treatment group

## O=C1[O][Pt]2([NH][C@@H]3CCCC[C@H]3[NH]2)[O]C1=O [oxaliplatin]
[8]
  effect of inhibiting cell proliferation in the triple drug treatment group: level similar to that of the double drug treatment group

## CCCCCOC(=O)Nc1nc(=O)n([C@@H]2O[C@H](C)[C@@H](O)[C@H]2O)cc1F [capecitabine]
[4]
  effect of inhibiting cell proliferation in the triple drug treatment group: level similar to that of the double drug treatment group
  synergistic effect of anticancer action when mixed with gossypol and phenformin: not exhibited

## O=c1[nH]cc(F)c(=O)[nH]1 [5-FU, 5-fluorouracil]
[5]
  effect of inhibiting cell proliferation in the triple drug treatment group: level similar to that of the double drug treatment group
  synergistic effect of anticancer action when mixed with gossypol and phenformin: not exhibited

## N.N.[Cl][Pt][Cl] [cisplatin]
[2]
  degree of cell proliferation with respect to the untreated control: proliferation of cancer cells could be inhibited at a significant level
  synergistic effect of anticancer action when mixed with gossypol and phenformin: can exhibit a synergistic effect
[4]
  effect of inhibiting cell proliferation in the triple drug treatment group: level similar to that of the double drug treatment group
  synergistic effect of anticancer action when mixed with gossypol and phenformin: not exhibited
[5]
  effect of inhibiting cell proliferation in the triple drug treatment group: level similar to that of the double drug treatment group
  synergistic effect of anticancer action when mixed with gossypol and phenformin: not exhibited
[7]
  degree of cell proliferation with respect to the untreated control: proliferation of cancer cells could be inhibited at a significant level
  synergistic effect of anticancer action when mixed with gossypol and phenformin: can exhibit a synergistic effect
[8]
  effect of inhibiting cell proliferation in the triple drug treatment group: level similar to that of the double drug treatment group
[8]; melanoma, vemurafenib 0.5 μM, cisplatin 10 μM or oxaliplatin 10 μM + gossypol 5 μM + phenformin 100 μM
  synergistic effect of anticancer action when mixed with gossypol and phenformin: not exhibited
[9]
  synergistic effect of anticancer action when mixed with gossypol and phenformin: not exhibited
[9]; cisplatin 1 μM or doxorubicin 1 μM mixed with gossypol 5 μM and phenformin 100 μM (Tables 14-15, FIGS. 5B, 5C)
  effect of inhibiting cell proliferation in the triple drug treatment group: level similar to that of the double drug treatment group

## CNC(=O)c1cc(Oc2ccc(NC(=O)Nc3ccc(Cl)c(C(F)(F)F)c3)cc2)ccn1 [sorafenib]
[2]
  synergistic effect of anticancer action when mixed with gossypol and phenformin: not exhibited
[2]; sorafenib 5 μM mixed with gossypol 5 μM and phenformin 100 μM (Table 23, FIG. 8B)
  effect of inhibiting cell proliferation in the triple drug treatment group: level similar to that of the double drug treatment group
[6]
  degree of cell proliferation with respect to the untreated control: proliferation of cancer cells could be inhibited
[6]; renal cell carcinoma, named agent 10 μM + gossypol 2.5 μM + phenformin 100 μM
  synergistic effect of anticancer action when mixed with gossypol and phenformin: can exhibit a synergistic effect

## CC(=O)O[C@@]12CO[C@@H]1C[C@H](O)[C@@]1(C)C(=O)[C@H](O)C3=C(C)[C@@H](OC(=O)[C@H](O)[C@@H](NC(=O)OC(C)(C)C)c4ccccc4)C[C@@](O)([C@@H](OC(=O)c4ccccc4)[C@H]21)C3(C)C [docetaxel]
[1]
  effect of inhibiting cell proliferation in the triple drug treatment group: level similar to that of the double drug treatment group

## CCc1c2c(nc3ccc(OC(=O)N4CCC(N5CCCCC5)CC4)cc13)-c1cc3c(c(=O)n1C2)COC(=O)[C@]3(O)CC [irinotecan]
[1]
  effect of inhibiting cell proliferation in the triple drug treatment group: level similar to that of the double drug treatment group
[3]
  level of tumor growth: significantly decreased the level of tumor growth
[4]
  synergistic effect of anticancer action when mixed with gossypol and phenformin: can exhibit a synergistic effect
  degree of cell proliferation with respect to the untreated control: proliferation of cancer cells could be inhibited at a significant level
[5]
  degree of cell proliferation with respect to the untreated control: proliferation of cancer cells could be inhibited at a significant level
  synergistic effect of anticancer action when mixed with gossypol and phenformin: can exhibit a synergistic effect
[7]
  synergistic effect of anticancer action when mixed with gossypol and phenformin: not exhibited
  effect of inhibiting cell proliferation in the triple drug treatment group: level similar to that of the double drug treatment group
[9]
  synergistic effect of anticancer action when mixed with gossypol and phenformin: can exhibit a synergistic effect
  degree of cell proliferation with respect to the untreated control: proliferation of cancer cells could be inhibited at a significant level
